Literature values as cited in patent US10195128B2, “Oral care compositions” (Colgate-Palmolive Company, priority 2016, dated 2019).

Details: oral or intraperitoneal administration; after consumption

Q: For `COc1cc(CCC(C)=O)ccc1O` [zingerone, 4-(3-methoxy-4-hydroxyphenyl)-butan-2-one], which “Time to excretion of glucuronide compounds and sulphate conjugates in urine” value is on record?
A: Its value is at most 24 h.
